Measurements published in patent US20080194499A1, “Composition for selective serotonin reuptake inhibition and process thereof” (priority 2007, published 2008).

Columns and labels:
Format in all cases: in vivo, Swiss albino mice
mice [1] = assay: Forced swim test after reserpine administration
Method: Reserpine Antagonism Depletion of biogenic amines in brain induces not only catalepsy but also hypothermia in rodents. The decrease of body temperature induced by reserpine is antagonized by antidepressants, MAO-inhibitors and central stimulants. Reserpine also decreases the levels of brain neuroamines like serotonin. […] Forced Swim Test after Reserpine Administration Male Swiss albino mice weighing 25-30 g would be used. All the animals would be Pre trained individually to swim for 15 minutes in vertical plexiglass cylinder (25×23 cm) containing 12 cm of water maintained at 25° C. They would be injected with 5 mg/kg reserpine i.p. after 20 hr of pretraining.

mice [2] = assay: Locomotor activity test after reserpine administration
Method: The intra-peritoneal administration of reserpine (5 mg/kg, i.p.) in mice leads to reduce locomotor activity which can be antagonized by antidepressants, MAO-inhibitors and central stimulants. Male Swiss albino mice weighing 25-30 g would be used.

mice [3] = assay: Tail suspension test in mice; details: 64 mg/kg p.o.
Text: Effect of Test Compound on Tail Suspension in Mice
This test is used to evaluate potential antidepressants by determining the percentage decrease in immobility in rodents. […] Clinically effective anti-dependents reduce the immobility that mice display after active and unsuccessful attempts to escape when suspended by tail.
Swiss albino mice of either sex weighing 25-30 g would be housed in plastic cages for at least 10 days prior to testing. Animals would be allowed to adapt to the testing environment for 1 hr before testing. […] For the test, the mice would be suspended on the edge of a shelf 58 cm above a tabletop by adhesive tape placed approximately 1 cm from the tip of the tail. The duration of immobility would be recorded for a period of 6 min continuously. Mice are considered immobile when they hang passively and completely motionless for at least […].
The percentage of animals showing the passive behavior is counted and compared with vehicle treated controls using various doses.

mice [4] = assay: Locomotor activity in mice (Actophotometer)
Method: Effect of Test Compound on Locomotor Activity in Mice This test is conducted to rule out the sedative aspect of the anti-depressants. Besides, it can also eliminate certain muscle relaxant effects of the drug. Swiss albino mice are tested in a locomotors chamber with laser sensors to check their movements. The locomotors score is a direct function of the mobility of the animal. Decrease in mobility could be due to sedative effect and muscle relaxant effect. Swiss albino mice of either sex weighing 25-30 g would be housed in plastic cages for at least 10 days prior to testing. Animals would be allowed to adapt to the testing environment for 1 hr before testing. […] For the test the mice would be individually placed in Actophotometer.

mice [5] = assay: Forced swim test; details: 100 mg/kg p.o.
Method: Mice forced to swim in a restricted space from which they cannot escape are induced to a characteristic behavior of immobility.
Male Swiss albino mice weighing 25-30 g would be brought into the laboratory at least one day before the experiment and would be housed separately in cages. Mice would be individually forced to swim inside a vertical Plexiglas cylinder (25×23 cm) containing 12 cm of water maintained at 25° C.
After 2-3 min activity begins to subside and to be interspersed with phases of immobility or floating of increasing length. After 5-6 min immobility reaches a plateau where the mice remain immobile for approximately 80% of the time. After 15 min in the water the mice would be removed and would be allowed to dry in a heated enclosure (32° C.) before being returned to their home cages. They would again be placed in the cylinder 24 hr later and the total duration of immobility would be counted for the last 4 min of 6 min test session. An animal is judged to be immobile whenever it remains floating passively in the water in a slightly hunched but upright position, its nose just above the surface.

re uptake of serotonin = assay: 5-Hydroxytryptophan (L 5-HTP) potentiation in mice; details: 64 mg/kg p.o.
Method: 5-Hydroxytryptophan (L 5-HTP) Potentiation in Mice
Several antidepressant agents potentiate serotonin effects by a block of the re uptake of serotonin. 5-Hydroxytryptophan is used as the precursor of serotonin.
Groups of 6 Swiss albino mice (25-30 g) would be used. […] The mice would be then placed into glass bell jars and the number of head twitches would be counted in five 2-min intervals (between 14 and 16, 24 and 26, 34 and 36, 44 and 46 and 54 and 56 min).

SMILES	TOTAL IMMOBILITY TIME (mice [1]; reserpine 5 mg/kg i.p. alone)	TOTAL LOCOMOTOR ACTIVITY COUNTS (mice [2]; reserpine 5 mg/kg i.p. alone)	TOTAL IMMOBILITY TIME (mice [3]; 60 min before test, 6 min recording)	% DECREASE IN IMMOBILITY (mice [3]; vs vehicle group)	TOTAL IMMOBILITY TIME (mice [1]; 100 mg/kg oral, 4 h after reserpine 5 mg/kg i.p., 6 min swim)	% DECREASE IN IMMOBILITY (mice [1]; 100 mg/kg oral, vs reserpine group)	TOTAL LOCOMOTOR ACTIVITY COUNTS (mice [4]; 64 mg/kg p.o., 60 min before test, 10 min count)	% INCREASE IN LOCOMOTOR ACTIVITY (mice [4]; 64 mg/kg p.o., vs vehicle group)	sedative effect (in words) (mice [4]; mice, locomotor activity test)	% INCREASE IN LOCOMOTOR ACTIVITY (mice [2]; 64 mg/kg oral, vs reserpine group)	TOTAL IMMOBILITY TIME (mice [5]; one hour before test, last 4 min of 6 min session)	% DECREASE IN IMMOBILITY (mice [5]; vs vehicle group)	TOTAL NO OF HEAD TWITCHES MEAN ± SEM (re uptake of serotonin; 60 min before 75 mg/kg i.p. 5-HTP)	% INCREASE IN NO OF HEAD TWITCHES (re uptake of serotonin; vs vehicle group)
COC(=O)[C@H]1[C@H]2C[C@@H]3c4[nH]c5cc(OC)ccc5c4CCN3C[C@H]2C[C@@H](OC(=O)c2cc(OC)c(OC)c(OC)c2)[C@@H]1OC [Reserpine]	221.60 ± 6.793 s	121.17 ± 06.112	–	–	–	–	–	–	–	–	–	–	–	–
CN(C)CCCN1c2ccccc2CCc2ccccc21 [Imipramine]	–	–	90.90 ± 7.690 s	51.88%	063.57 ± 3.320 s	71.24%	127.00 ± 06.90	−38.80%	induces sedation	079.91%	45.17 ± 4.450 s	71.44%	13.25 ± 2.477	−38.73%
